Measurements reported in US20260284079A1, “LIPID PRODRUGS OF ALLOPR[…] USES THEREOF” (Seaport Therapeutics, Inc., priority 2023, published 2026).

Assays:
[1] = Multiple ascending dose (MAD) study, PK (Example 1 Part 3); conditions: allopregnanolone and combined allopregnanolone
[2] = Safety and tolerability, treatment-emergent adverse events (Example 1); format: in vivo, human; conditions: for Any TEAE, subjects (%): 9 subjects
Text: As used herein, the term “Adverse Event” refers to any event, side-effect, or other untoward medical occurrence in a subject (i.e., a clinical study participant) administered a pharmaceutical product. […] As used herein, a “treatment-emergent adverse event” or “TEAE” refers to an adverse event not present prior to treatment (i.e., receiving a dose of Compound 1) or an already present event that worsens in intensity or frequency following treatment. TEAEs may be classified by system organ class (SOC); an exemplary SOC is Nervous System Disorders. Examples of Nervous System Disorder TEAEs include somnolence, headache, dizziness, lethargy, balance disorder, and cognitive disorder.
A three-part study to assess the safety, tolerability, and PK/PD properties of Compound 1 in humans was performed. Part 1 was a randomized, double-blinded, placebo-controlled, single ascending dose (SAD) phase. Part 2 was a randomized, open-label phase to assess the effect of food on Compound 1. Part 3 was a randomized, double-blinded, placebo-controlled multiple-ascending dose phase.
Part 1 Primary Objectives: to evaluate the safety and tolerability of single oral doses of Compound 1 and to determine the maximum tolerated dose (MTD) following ascending single oral doses of Compound 1. Part 1 Primary Endpoints: incidence, severity, and duration of treatment-emergent adverse events (TEAEs), serious adverse events (SAEs), and incidence of clinically significant vital signs, pulse oximetry, ECGs, safety laboratory, or physical examination findings and MTD of Compound 1 in healthy subjects.
The safety, tolerability, and PK of Compound 1 administered as multiple doses (up to 7 days) was determined. Subjects in cohorts 4-6 were administered Compound 1 once daily in the morning (QAM) in a fed state. Subjects in cohorts 7-8 were administered Compound 1 once daily in the evening (QHS) in a fed state.
Part 3 Primary Objective: to evaluate the safety and tolerability of multiple oral doses of Compound 1 and to determine the maximum tolerated dose of Compound 1 following multiple oral doses. Part 3 Primary Endpoints: incidence, severity, and duration of treatment-emergent adverse events, […], and incidence of clinically significant vital signs, pulse oximetry, ECGs, safety laboratory, or physical examination findings, and the maximum tolerated dose of Compound 1 in healthy subjects.

CCCCCCCC(=O)OCC(COC(=O)CCCCCCC)OC(=O)CC(C)CC(=O)OCOC(=O)O[C@@H]1CC[C@@]2(C)[C@@H](CC[C@@H]3[C@@H]2CC[C@]2(C)[C@@H](C(C)=O)CC[C@@H]32)C1 (some centres unmarked) [Compound 1]
accumulation upon multiple dosing ([1]; once daily): minimal accumulation | time to steady state ([1]; once daily administration): Day 2 and Day 3 | tolerability across dose levels tested ([2]; Example 1, Parts 1-3): generally well tolerated | TEAE Abnormal Dreams (Psychiatric Disorders), subjects (%) ([2]; MAD Cohort 4, 250 mg QAM): 0 | TEAE Balance Disorder (Nervous System Disorders), subjects (%) ([2]; MAD Cohort 4, 250 mg QAM): 0 | TEAE Cognitive Disorder (Nervous System Disorders), subjects (%) ([2]; MAD Cohort 4, 250 mg QAM): 0 | TEAE Diarrhoea (Gastrointestinal Disorders), subjects (%) ([2]; MAD Cohort 4, 250 mg QAM): 0 | TEAE Disturbance in attention (Nervous System Disorders), subjects (%) ([2]; MAD Cohort 4, 250 mg QAM): 0 | TEAE Dizziness (Nervous System Disorders), subjects (%) ([2]; MAD Cohort 4, 250 mg QAM): 0 | TEAE Euphoric Mood (Psychiatric Disorders), subjects (%) ([2]; MAD Cohort 4, 250 mg QAM): 0 | TEAE Fatigue (General Disorders and Administration Site Conditions), subjects (%) ([2]; MAD Cohort 4, 250 mg QAM): 0 | TEAE Hallucination, Visual (Psychiatric Disorders), subjects (%) ([2]; MAD Cohort 4, 250 mg QAM): 0 | TEAE Headache (Nervous System Disorders), subjects (%) ([2]; MAD Cohort 4, 250 mg QAM): 0 | TEAE Lethargy (Nervous System Disorders), subjects (%) ([2]; MAD Cohort 4, 250 mg QAM): 0 | TEAE Rhinorrhoea (Respiratory, Thoracic, and Mediastinal Disorders), subjects (%) ([2]; MAD Cohort 4, 250 mg QAM): 0 | TEAE Sedation (Nervous System Disorders), subjects (%) ([2]; MAD Cohort 4, 250 mg QAM): 0 | TEAE Somnolence (Nervous System Disorders), subjects (%) ([2]; MAD Cohort 4, 250 mg QAM): 7 (77.8%) | Any TEAE, subjects (%) ([2]; MAD Cohort 4, 250 mg QAM): 7 (77.8%) | TEAE Abnormal Dreams (Psychiatric Disorders), subjects (%) ([2]; MAD Cohort 5, 375 mg QAM): 1 (11.1%) | TEAE Balance Disorder (Nervous System Disorders), subjects (%) ([2]; MAD Cohort 5, 375 mg QAM): 0 | TEAE Cognitive Disorder (Nervous System Disorders), subjects (%) ([2]; MAD Cohort 5, 375 mg QAM): 1 (11.1%) | TEAE Diarrhoea (Gastrointestinal Disorders), subjects (%) ([2]; MAD Cohort 5, 375 mg QAM): 0 | TEAE Disturbance in attention (Nervous System Disorders), subjects (%) ([2]; MAD Cohort 5, 375 mg QAM): 0 | TEAE Dizziness (Nervous System Disorders), subjects (%) ([2]; MAD Cohort 5, 375 mg QAM): 0 | TEAE Euphoric Mood (Psychiatric Disorders), subjects (%) ([2]; MAD Cohort 5, 375 mg QAM): 0 | TEAE Fatigue (General Disorders and Administration Site Conditions), subjects (%) ([2]; MAD Cohort 5, 375 mg QAM): 0 | TEAE Hallucination, Visual (Psychiatric Disorders), subjects (%) ([2]; MAD Cohort 5, 375 mg QAM): 0 | TEAE Headache (Nervous System Disorders), subjects (%) ([2]; MAD Cohort 5, 375 mg QAM): 0 | TEAE Lethargy (Nervous System Disorders), subjects (%) ([2]; MAD Cohort 5, 375 mg QAM): 0 | TEAE Rhinorrhoea (Respiratory, Thoracic, and Mediastinal Disorders), subjects (%) ([2]; MAD Cohort 5, 375 mg QAM): 0 | TEAE Sedation (Nervous System Disorders), subjects (%) ([2]; MAD Cohort 5, 375 mg QAM): 0 | TEAE Somnolence (Nervous System Disorders), subjects (%) ([2]; MAD Cohort 5, 375 mg QAM): 6 (66.7%) | Any TEAE, subjects (%) ([2]; MAD Cohort 5, 375 mg QAM): 6 (66.7%) | TEAE Abnormal Dreams (Psychiatric Disorders), subjects (%) ([2]; MAD Cohort 6, 500 mg QAM): 0 | TEAE Balance Disorder (Nervous System Disorders), subjects (%) ([2]; MAD Cohort 6, 500 mg QAM): 7 (77.8%) | TEAE Cognitive Disorder (Nervous System Disorders), subjects (%) ([2]; MAD Cohort 6, 500 mg QAM): 4 (44.4%) | TEAE Diarrhoea (Gastrointestinal Disorders), subjects (%) ([2]; MAD Cohort 6, 500 mg QAM): 0 | TEAE Disturbance in attention (Nervous System Disorders), subjects (%) ([2]; MAD Cohort 6, 500 mg QAM): 1 (11.1%) | TEAE Dizziness (Nervous System Disorders), subjects (%) ([2]; MAD Cohort 6, 500 mg QAM): 1 (11.1%) | TEAE Euphoric Mood (Psychiatric Disorders), subjects (%) ([2]; MAD Cohort 6, 500 mg QAM): 1 (11.1%) | TEAE Fatigue (General Disorders and Administration Site Conditions), subjects (%) ([2]; MAD Cohort 6, 500 mg QAM): 0 | TEAE Hallucination, Visual (Psychiatric Disorders), subjects (%) ([2]; MAD Cohort 6, 500 mg QAM): 1 (11.1%) | TEAE Headache (Nervous System Disorders), subjects (%) ([2]; MAD Cohort 6, 500 mg QAM): 0 | TEAE Lethargy (Nervous System Disorders), subjects (%) ([2]; MAD Cohort 6, 500 mg QAM): 1 (11.1%) | TEAE Rhinorrhoea (Respiratory, Thoracic, and Mediastinal Disorders), subjects (%) ([2]; MAD Cohort 6, 500 mg QAM): 0 | TEAE Sedation (Nervous System Disorders), subjects (%) ([2]; MAD Cohort 6, 500 mg QAM): 0 | TEAE Somnolence (Nervous System Disorders), subjects (%) ([2]; MAD Cohort 6, 500 mg QAM): 9 (100%) | Any TEAE, subjects (%) ([2]; MAD Cohort 6, 500 mg QAM): 9 (100%) | TEAE Abnormal Dreams (Psychiatric Disorders), subjects (%) ([2]; MAD Cohort 7, 375 mg QHS): 0 | TEAE Balance Disorder (Nervous System Disorders), subjects (%) ([2]; MAD Cohort 7, 375 mg QHS): 2 | TEAE Cognitive Disorder (Nervous System Disorders), subjects (%) ([2]; MAD Cohort 7, 375 mg QHS): 2 (22.2%) | TEAE Diarrhoea (Gastrointestinal Disorders), subjects (%) ([2]; MAD Cohort 7, 375 mg QHS): 1 (11.1%) | TEAE Disturbance in attention (Nervous System Disorders), subjects (%) ([2]; MAD Cohort 7, 375 mg QHS): 1 (11.1%) | TEAE Dizziness (Nervous System Disorders), subjects (%) ([2]; MAD Cohort 7, 375 mg QHS): 1 (11.1%) | TEAE Euphoric Mood (Psychiatric Disorders), subjects (%) ([2]; MAD Cohort 7, 375 mg QHS): 1 (11.1%) | TEAE Fatigue (General Disorders and Administration Site Conditions), subjects (%) ([2]; MAD Cohort 7, 375 mg QHS): 0 | TEAE Hallucination, Visual (Psychiatric Disorders), subjects (%) ([2]; MAD Cohort 7, 375 mg QHS): 0 | TEAE Headache (Nervous System Disorders), subjects (%) ([2]; MAD Cohort 7, 375 mg QHS): 1 (11.1%) | TEAE Lethargy (Nervous System Disorders), subjects (%) ([2]; MAD Cohort 7, 375 mg QHS): 0 | TEAE Rhinorrhoea (Respiratory, Thoracic, and Mediastinal Disorders), subjects (%) ([2]; MAD Cohort 7, 375 mg QHS): 0 | TEAE Sedation (Nervous System Disorders), subjects (%) ([2]; MAD Cohort 7, 375 mg QHS): 0 | TEAE Somnolence (Nervous System Disorders), subjects (%) ([2]; MAD Cohort 7, 375 mg QHS): 5 (55.6%) | Any TEAE, subjects (%) ([2]; MAD Cohort 7, 375 mg QHS): 6 (66.7%) | TEAE Abnormal Dreams (Psychiatric Disorders), subjects (%) ([2]; MAD Cohort 8, 375 mg QHS): 0 | TEAE Balance Disorder (Nervous System Disorders), subjects (%) ([2]; MAD Cohort 8, 375 mg QHS): 0 | TEAE Cognitive Disorder (Nervous System Disorders), subjects (%) ([2]; MAD Cohort 8, 375 mg QHS): 0 | TEAE Diarrhoea (Gastrointestinal Disorders), subjects (%) ([2]; MAD Cohort 8, 375 mg QHS): 0 | TEAE Disturbance in attention (Nervous System Disorders), subjects (%) ([2]; MAD Cohort 8, 375 mg QHS): 0 | TEAE Dizziness (Nervous System Disorders), subjects (%) ([2]; MAD Cohort 8, 375 mg QHS): 0 | TEAE Euphoric Mood (Psychiatric Disorders), subjects (%) ([2]; MAD Cohort 8, 375 mg QHS): 0 | TEAE Fatigue (General Disorders and Administration Site Conditions), subjects (%) ([2]; MAD Cohort 8, 375 mg QHS): 0 | TEAE Hallucination, Visual (Psychiatric Disorders), subjects (%) ([2]; MAD Cohort 8, 375 mg QHS): 0 | TEAE Headache (Nervous System Disorders), subjects (%) ([2]; MAD Cohort 8, 375 mg QHS): 0 | TEAE Lethargy (Nervous System Disorders), subjects (%) ([2]; MAD Cohort 8, 375 mg QHS): 0 | TEAE Rhinorrhoea (Respiratory, Thoracic, and Mediastinal Disorders), subjects (%) ([2]; MAD Cohort 8, 375 mg QHS): 0 | TEAE Sedation (Nervous System Disorders), subjects (%) ([2]; MAD Cohort 8, 375 mg QHS): 1 (11.1%) | TEAE Somnolence (Nervous System Disorders), subjects (%) ([2]; MAD Cohort 8, 375 mg QHS): 1 (11.1%) | Any TEAE, subjects (%) ([2]; MAD Cohort 8, 375 mg QHS): 2 (22.2%) | effect of food on safety or tolerability ([2]; Part 2, 140 mg): Food did not impact safety or tolerability | most common adverse event ([2]; most frequently at doses greater than or equal to 500 mg): somnolence
